Measured values reported in the supplement of paper PMC12076712.

Columns and labels:
Assay in all cases: pIC50, kinobeads binding competition
ABL2 = ABL2 (UniProt P42684)
Summary of the method: (§1)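 pIC50 was obtained by fitting fold changes against vehicle to logistic dose-response curves with the R drc package, using biological duplicates. Kinobeads-bound proteins were digested and measured by TMT10 LC-MS/MS. Before this, either living Jurkat cells received nine compound concentrations (top 30 μM, 1:4 steps) for 60 min at 37 °C prior to lysis, or Jurkat lysate or a 1:1:1:1 HEK293/K-562/HepG2/placenta lysate mix received nine concentrations (top 30 μM, 1:5 steps) for 60 min at 4 °C.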

CSK = CSK (UniProt P41240)
Summary of the method: as §1

EIF2AK4 = EIF2AK4 (UniProt Q9P2K8)
Summary of the method: as §1

EPHA2 = EPHA2 (UniProt P29317); details: cell material: Lysate mix
Summary of the method: as §1

JAK1 = JAK1 (UniProt P23458)
Summary of the method: as §1

MERTK = molecular target: T1, MERTK (UniProt Q12866)
T1 sequence (whole entry): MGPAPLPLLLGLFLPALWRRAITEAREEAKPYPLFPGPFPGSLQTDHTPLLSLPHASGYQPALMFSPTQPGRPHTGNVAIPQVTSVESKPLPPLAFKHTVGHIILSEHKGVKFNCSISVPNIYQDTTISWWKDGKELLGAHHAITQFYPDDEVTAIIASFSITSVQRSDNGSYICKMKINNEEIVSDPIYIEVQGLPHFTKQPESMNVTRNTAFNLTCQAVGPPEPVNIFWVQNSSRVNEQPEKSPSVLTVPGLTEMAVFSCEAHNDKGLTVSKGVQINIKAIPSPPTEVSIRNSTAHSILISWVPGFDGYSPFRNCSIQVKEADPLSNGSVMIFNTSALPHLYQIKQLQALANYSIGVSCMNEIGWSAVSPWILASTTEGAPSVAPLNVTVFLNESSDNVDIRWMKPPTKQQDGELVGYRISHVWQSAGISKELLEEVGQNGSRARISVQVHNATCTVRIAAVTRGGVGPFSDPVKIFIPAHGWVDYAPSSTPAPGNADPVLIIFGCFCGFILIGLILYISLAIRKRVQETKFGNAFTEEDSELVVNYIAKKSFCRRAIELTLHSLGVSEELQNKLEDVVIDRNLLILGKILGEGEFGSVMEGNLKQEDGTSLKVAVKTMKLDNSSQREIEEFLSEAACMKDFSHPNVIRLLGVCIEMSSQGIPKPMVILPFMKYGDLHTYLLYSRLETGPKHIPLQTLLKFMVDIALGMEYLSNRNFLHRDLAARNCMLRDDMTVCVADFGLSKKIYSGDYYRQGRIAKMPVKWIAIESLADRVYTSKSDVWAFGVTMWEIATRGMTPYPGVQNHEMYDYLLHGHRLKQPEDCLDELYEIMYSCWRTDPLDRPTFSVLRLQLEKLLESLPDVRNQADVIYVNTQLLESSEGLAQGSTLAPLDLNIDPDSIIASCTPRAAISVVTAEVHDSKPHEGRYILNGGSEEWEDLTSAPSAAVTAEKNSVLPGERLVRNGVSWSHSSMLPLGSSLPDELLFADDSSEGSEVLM
Summary of the method: as §1

NEK3 = molecular target: T2, NEK3 (UniProt P51956)
T2 sequence (whole entry): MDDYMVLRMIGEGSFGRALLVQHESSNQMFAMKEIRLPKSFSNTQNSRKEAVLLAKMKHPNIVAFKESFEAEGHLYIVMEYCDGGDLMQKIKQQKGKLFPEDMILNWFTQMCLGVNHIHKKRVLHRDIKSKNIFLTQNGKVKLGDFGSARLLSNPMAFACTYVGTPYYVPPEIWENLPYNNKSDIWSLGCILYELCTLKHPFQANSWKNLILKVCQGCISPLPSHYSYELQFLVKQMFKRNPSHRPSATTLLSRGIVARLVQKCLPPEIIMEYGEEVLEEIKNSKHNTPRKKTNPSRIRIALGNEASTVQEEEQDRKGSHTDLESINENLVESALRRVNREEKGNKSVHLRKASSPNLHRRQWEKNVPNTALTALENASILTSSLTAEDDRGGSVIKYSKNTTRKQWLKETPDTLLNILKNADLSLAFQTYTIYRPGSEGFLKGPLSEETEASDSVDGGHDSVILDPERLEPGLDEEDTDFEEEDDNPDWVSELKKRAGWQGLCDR
Summary of the method: as §1

PAK4 = PAK4 (UniProt O96013)
Summary of the method: as §1

PRKD3 = molecular target: T3, PRKD3 (UniProt O94806)
T3 sequence (whole entry): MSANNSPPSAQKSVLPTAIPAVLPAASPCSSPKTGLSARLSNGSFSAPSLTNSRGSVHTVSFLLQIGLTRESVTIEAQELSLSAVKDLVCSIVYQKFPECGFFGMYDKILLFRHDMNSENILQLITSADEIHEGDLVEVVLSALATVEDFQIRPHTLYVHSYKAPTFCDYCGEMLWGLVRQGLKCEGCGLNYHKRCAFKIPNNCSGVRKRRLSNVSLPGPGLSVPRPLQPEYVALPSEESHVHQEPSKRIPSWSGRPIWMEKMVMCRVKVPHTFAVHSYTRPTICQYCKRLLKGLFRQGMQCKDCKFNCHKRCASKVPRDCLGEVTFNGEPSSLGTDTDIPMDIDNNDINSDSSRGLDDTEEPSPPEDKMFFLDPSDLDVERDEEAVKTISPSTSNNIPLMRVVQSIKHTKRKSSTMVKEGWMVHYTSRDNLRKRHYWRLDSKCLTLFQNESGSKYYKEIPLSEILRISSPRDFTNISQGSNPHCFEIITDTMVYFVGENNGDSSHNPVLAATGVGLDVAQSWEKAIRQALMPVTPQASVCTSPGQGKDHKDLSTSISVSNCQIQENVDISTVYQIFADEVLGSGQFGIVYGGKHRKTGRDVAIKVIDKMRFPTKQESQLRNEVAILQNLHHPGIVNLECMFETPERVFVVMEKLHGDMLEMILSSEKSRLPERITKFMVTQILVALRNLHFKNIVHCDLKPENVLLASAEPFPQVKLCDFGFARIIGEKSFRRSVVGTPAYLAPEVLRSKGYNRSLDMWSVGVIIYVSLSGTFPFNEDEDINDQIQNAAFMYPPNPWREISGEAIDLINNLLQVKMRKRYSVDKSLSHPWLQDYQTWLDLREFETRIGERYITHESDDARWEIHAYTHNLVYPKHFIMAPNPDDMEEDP
Summary of the method: as §1

UniProt P36507 = molecular target: UniProt P36507
Summary of the method: as §1

Sequence of ABL2 (P42684 whole entry): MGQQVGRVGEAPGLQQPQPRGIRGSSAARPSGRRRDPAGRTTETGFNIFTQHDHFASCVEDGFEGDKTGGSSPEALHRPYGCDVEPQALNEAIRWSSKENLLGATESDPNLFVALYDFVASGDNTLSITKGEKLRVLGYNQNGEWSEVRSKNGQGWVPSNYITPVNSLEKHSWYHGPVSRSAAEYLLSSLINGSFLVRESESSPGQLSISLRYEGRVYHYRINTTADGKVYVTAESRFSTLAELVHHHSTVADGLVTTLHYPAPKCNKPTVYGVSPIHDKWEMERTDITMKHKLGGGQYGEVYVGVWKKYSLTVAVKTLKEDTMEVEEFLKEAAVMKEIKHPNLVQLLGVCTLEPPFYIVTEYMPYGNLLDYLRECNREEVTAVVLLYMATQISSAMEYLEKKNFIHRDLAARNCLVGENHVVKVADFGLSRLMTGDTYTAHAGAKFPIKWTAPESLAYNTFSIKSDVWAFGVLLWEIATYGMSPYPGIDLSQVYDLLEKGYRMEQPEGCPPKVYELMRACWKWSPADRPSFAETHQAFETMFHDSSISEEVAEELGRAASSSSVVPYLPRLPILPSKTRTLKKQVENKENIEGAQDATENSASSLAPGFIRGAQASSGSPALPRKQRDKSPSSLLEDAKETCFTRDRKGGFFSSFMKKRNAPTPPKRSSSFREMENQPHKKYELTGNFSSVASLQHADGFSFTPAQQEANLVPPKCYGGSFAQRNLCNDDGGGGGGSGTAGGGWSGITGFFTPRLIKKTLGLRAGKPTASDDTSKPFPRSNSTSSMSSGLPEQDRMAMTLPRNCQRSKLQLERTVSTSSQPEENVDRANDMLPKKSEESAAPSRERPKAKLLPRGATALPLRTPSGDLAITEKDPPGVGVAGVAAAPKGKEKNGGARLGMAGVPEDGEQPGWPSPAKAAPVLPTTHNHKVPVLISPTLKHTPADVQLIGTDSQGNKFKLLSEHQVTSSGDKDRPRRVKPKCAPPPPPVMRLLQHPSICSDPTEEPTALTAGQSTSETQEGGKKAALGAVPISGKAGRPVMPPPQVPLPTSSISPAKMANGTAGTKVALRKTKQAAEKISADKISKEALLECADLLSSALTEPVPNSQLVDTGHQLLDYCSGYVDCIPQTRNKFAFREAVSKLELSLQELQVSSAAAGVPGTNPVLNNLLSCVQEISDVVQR
Sequence of PAK4 (O96013 whole entry, looked up): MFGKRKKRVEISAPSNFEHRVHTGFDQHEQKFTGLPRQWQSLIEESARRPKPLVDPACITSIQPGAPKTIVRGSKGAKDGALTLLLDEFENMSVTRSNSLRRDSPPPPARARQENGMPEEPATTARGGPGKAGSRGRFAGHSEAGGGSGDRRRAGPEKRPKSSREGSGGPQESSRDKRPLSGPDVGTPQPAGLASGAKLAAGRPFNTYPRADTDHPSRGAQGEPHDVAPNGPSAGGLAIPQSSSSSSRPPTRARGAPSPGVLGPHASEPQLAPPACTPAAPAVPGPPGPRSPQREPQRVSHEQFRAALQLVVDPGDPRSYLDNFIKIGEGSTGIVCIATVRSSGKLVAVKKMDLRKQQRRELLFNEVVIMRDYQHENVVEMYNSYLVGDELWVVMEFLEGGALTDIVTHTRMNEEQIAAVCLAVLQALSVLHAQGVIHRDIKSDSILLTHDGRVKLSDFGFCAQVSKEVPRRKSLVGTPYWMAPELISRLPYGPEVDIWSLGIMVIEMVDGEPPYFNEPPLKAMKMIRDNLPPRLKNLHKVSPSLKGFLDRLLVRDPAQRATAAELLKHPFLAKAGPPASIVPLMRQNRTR
Sequence of UniProt P36507 (P36507 whole entry): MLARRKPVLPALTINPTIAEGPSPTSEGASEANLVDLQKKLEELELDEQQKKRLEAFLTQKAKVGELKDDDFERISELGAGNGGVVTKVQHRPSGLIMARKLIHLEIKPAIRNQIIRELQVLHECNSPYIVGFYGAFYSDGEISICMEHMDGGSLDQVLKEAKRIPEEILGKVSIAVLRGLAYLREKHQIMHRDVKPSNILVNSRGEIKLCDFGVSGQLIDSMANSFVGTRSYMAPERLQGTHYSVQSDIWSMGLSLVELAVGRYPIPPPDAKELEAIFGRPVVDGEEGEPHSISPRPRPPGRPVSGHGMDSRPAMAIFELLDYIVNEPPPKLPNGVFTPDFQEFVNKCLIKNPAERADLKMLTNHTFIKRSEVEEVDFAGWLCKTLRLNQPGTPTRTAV
Sequence of EIF2AK4 (Q9P2K8 whole entry): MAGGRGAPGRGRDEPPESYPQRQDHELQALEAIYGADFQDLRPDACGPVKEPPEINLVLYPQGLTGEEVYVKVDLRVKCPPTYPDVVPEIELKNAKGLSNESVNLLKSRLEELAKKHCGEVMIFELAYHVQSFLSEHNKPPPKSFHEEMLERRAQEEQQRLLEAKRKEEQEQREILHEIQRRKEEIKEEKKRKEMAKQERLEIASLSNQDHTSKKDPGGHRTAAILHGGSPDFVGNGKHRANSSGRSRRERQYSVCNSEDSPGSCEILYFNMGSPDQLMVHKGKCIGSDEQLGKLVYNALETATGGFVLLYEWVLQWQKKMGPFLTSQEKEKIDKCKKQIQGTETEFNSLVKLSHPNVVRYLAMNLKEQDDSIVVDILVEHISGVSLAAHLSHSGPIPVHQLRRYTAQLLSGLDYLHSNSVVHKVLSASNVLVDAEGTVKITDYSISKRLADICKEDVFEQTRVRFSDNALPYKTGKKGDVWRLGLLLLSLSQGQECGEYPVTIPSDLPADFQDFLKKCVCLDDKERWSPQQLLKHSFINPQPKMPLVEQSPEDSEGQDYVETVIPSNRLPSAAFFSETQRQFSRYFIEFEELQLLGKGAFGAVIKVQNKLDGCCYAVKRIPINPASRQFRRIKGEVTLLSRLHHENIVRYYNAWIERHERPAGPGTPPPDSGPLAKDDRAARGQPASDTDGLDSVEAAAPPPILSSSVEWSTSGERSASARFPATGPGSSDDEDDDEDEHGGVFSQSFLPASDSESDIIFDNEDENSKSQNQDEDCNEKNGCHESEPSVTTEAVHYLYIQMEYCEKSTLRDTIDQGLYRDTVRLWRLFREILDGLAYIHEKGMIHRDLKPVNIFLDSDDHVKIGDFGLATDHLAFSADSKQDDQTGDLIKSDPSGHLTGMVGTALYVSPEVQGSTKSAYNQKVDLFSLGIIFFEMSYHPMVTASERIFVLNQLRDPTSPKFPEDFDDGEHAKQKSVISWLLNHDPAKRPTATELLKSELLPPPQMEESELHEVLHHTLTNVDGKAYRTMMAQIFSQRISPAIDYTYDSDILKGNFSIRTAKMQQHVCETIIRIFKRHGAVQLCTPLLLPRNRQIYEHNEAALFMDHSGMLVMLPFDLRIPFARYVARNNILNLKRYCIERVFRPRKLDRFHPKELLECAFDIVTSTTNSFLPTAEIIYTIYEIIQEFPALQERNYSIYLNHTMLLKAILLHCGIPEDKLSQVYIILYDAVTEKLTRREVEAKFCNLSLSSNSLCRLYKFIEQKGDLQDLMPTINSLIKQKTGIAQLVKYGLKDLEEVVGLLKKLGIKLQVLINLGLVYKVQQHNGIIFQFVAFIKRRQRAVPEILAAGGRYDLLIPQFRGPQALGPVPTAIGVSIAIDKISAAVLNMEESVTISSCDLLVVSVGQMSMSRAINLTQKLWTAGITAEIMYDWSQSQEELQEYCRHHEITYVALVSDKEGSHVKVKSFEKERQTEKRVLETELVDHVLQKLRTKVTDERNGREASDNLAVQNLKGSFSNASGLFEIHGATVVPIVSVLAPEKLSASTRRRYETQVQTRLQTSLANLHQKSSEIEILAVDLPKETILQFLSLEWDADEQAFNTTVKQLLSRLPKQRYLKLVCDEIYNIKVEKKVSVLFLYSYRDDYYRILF
Sequence of EPHA2 (P29317 whole entry): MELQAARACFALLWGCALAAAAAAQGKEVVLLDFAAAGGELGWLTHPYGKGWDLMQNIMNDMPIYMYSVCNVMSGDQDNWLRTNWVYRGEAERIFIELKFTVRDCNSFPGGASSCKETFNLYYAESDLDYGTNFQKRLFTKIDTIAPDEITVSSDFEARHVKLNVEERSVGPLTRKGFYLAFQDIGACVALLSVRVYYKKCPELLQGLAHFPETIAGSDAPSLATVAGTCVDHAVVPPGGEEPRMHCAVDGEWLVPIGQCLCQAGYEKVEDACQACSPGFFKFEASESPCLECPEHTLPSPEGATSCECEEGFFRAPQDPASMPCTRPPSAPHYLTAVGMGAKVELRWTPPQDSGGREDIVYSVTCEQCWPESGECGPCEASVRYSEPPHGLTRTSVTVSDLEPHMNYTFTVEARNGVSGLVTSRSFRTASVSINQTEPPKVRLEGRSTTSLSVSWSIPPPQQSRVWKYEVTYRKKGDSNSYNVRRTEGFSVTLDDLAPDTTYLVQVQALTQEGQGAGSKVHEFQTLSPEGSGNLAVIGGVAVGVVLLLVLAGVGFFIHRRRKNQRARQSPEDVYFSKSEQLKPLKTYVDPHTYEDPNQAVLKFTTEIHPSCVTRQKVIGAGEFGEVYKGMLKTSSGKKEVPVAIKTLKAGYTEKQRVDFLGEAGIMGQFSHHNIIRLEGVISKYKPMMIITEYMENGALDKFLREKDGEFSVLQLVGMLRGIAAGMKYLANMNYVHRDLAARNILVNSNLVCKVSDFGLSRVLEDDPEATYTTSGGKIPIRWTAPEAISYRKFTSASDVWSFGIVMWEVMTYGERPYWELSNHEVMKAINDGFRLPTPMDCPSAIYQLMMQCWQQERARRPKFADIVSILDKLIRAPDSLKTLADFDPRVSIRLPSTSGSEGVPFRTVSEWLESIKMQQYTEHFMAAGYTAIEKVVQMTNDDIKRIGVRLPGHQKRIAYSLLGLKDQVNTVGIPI

| pIC50 (ABL2; cell material: Lysate mix) | pIC50 (CSK; cell material: Lysate mix) | pIC50 (EIF2AK4; cell material: Lysate mix) | pIC50 (EPHA2) | pIC50 (JAK1; cell material: Lysate mix) | pIC50 (MERTK; cell material: Lysate mix) | pIC50 (NEK3; cell material: Lysate mix) | pIC50 (PAK4; cell material: Lysate mix) | pIC50 (PRKD3; cell material: Lysate mix) | pIC50 (UniProt P36507; cell material: Lysate mix) | pIC50 (NEK3; cell material: Jurkat cells) | Structure (SMILES) | pIC50 (ABL2; cell material: Jurkat cells) | pIC50 (ABL2; cell material: Jurkat lysate) | pIC50 (CSK; cell material: Jurkat cells) | pIC50 (CSK; cell material: Jurkat lysate) | pIC50 (EIF2AK4; cell material: Jurkat cells) | pIC50 (EIF2AK4; cell material: Jurkat lysate) | pIC50 (JAK1; cell material: Jurkat cells) | pIC50 (JAK1; cell material: Jurkat lysate) | pIC50 (MERTK; cell material: Jurkat cells) | pIC50 (MERTK; cell material: Jurkat lysate) | pIC50 (PAK4; cell material: Jurkat cells) | pIC50 (PAK4; cell material: Jurkat lysate) | pIC50 (PRKD3; cell material: Jurkat lysate) | pIC50 (UniProt P36507; cell material: Jurkat cells) | pIC50 (UniProt P36507; cell material: Jurkat lysate) | pIC50 (NEK3; cell material: Jurkat lysate) | pIC50 (PRKD3; cell material: Jurkat cells) |
| --- | --- | --- | --- | --- | --- | --- | --- | --- | --- | --- | --- | --- | --- | --- | --- | --- | --- | --- | --- | --- | --- | --- | --- | --- | --- | --- | --- | --- |
| < 4.52 | < 4.52 | < 4.52 | < 4.52 | < 4.52 | < 4.52 | < 4.52 | < 4.52 | < 4.52 | < 4.52 |  | Cc1cc(Nc2cc(C(=O)NCCNC(=O)OC3CC/C=C/CCC3)nc(N3CCN(Cc4ccc(S(=O)(=O)F)cc4)CC3)n2)n[nH]1 (stereo not drawn) |  |  |  |  |  |  |  |  |  |  |  |  |  |  |  |  |  |
| 4.81 | < 4.52 | 4.98 | < 4.52 | < 4.52 | < 4.52 | < 4.52 | 4.7 | < 4.52 | < 4.52 |  | CCNC(=O)c1cc(Nc2cc(C)[nH]n2)nc(N2CCN(Cc3ccc(S(=O)(=O)F)cc3)CC2)n1 |  |  |  |  |  |  |  |  |  |  |  |  |  |  |  |  |  |

More lines, now with the values behind:

| Structure (SMILES) | pIC50 (ABL2; cell material: Lysate mix) | pIC50 (CSK; cell material: Lysate mix) | pIC50 (EIF2AK4; cell material: Lysate mix) | pIC50 (EPHA2) | pIC50 (JAK1; cell material: Lysate mix) | pIC50 (MERTK; cell material: Lysate mix) | pIC50 (NEK3; cell material: Lysate mix) | pIC50 (PAK4; cell material: Lysate mix) | pIC50 (PRKD3; cell material: Lysate mix) | pIC50 (UniProt P36507; cell material: Lysate mix) | pIC50 (NEK3; cell material: Jurkat cells) | pIC50 (ABL2; cell material: Jurkat cells) | pIC50 (ABL2; cell material: Jurkat lysate) | pIC50 (CSK; cell material: Jurkat cells) | pIC50 (CSK; cell material: Jurkat lysate) | pIC50 (EIF2AK4; cell material: Jurkat cells) | pIC50 (EIF2AK4; cell material: Jurkat lysate) | pIC50 (JAK1; cell material: Jurkat cells) | pIC50 (JAK1; cell material: Jurkat lysate) | pIC50 (MERTK; cell material: Jurkat cells) | pIC50 (MERTK; cell material: Jurkat lysate) | pIC50 (PAK4; cell material: Jurkat cells) | pIC50 (PAK4; cell material: Jurkat lysate) | pIC50 (PRKD3; cell material: Jurkat lysate) | pIC50 (UniProt P36507; cell material: Jurkat cells) | pIC50 (UniProt P36507; cell material: Jurkat lysate) | pIC50 (NEK3; cell material: Jurkat lysate) | pIC50 (PRKD3; cell material: Jurkat cells) |
| --- | --- | --- | --- | --- | --- | --- | --- | --- | --- | --- | --- | --- | --- | --- | --- | --- | --- | --- | --- | --- | --- | --- | --- | --- | --- | --- | --- | --- |
| C#CCNC(=O)c1cc(Nc2cc(C)[nH]n2)nc(N2CCN(Cc3ccc(S(=O)(=O)F)cc3)CC2)n1 | 4.64 | < 4.52 | 5.15 | < 4.52 | < 4.52 | < 4.52 | < 4.52 | 4.8 | < 4.52 | < 4.52 |  |  |  |  |  |  |  |  |  |  |  |  |  |  |  |  |  |  |
| O=C(NCCNC(=O)c1cc(Nc2cc(C3CC3)[nH]n2)nc(N2CCN(Cc3ccc(S(=O)(=O)F)cc3)CC2)n1)OC1CC/C=C/CCC1 (stereo not drawn) | < 4.52 | < 4.52 | < 4.52 | < 4.52 | < 4.52 | < 4.52 | < 4.52 | < 4.52 | < 4.52 | < 4.52 | 5.56 | 5 | < 4.52 | < 4.52 | < 4.52 | 5.62 | < 4.52 | < 4.52 | < 4.52 | 6.04 | < 4.52 | 6.17 | < 4.52 | < 4.52 | 5.27 | < 4.52 |  |  |
| C#CCNC(=O)c1cc(Nc2cc(C3CC3)[nH]n2)nc(N2CCN(Cc3ccc(S(=O)(=O)F)cc3)CC2)n1 | 5.39 | < 4.52 | 5.44 | < 4.52 | < 4.52 | 4.84 | 5.7 | 5.58 | < 4.52 | 5.72 |  | 5.87 | 4.65 | 5.55 | < 4.52 | 6.08 | 4.63 | 5.18 | < 4.52 | 6.29 | < 4.52 | 5.78 | 5.19 | < 4.52 | 6.02 | < 4.52 | 4.66 | 5.32 |
| CCNC(=O)c1cc(Nc2cc(C3CC3)[nH]n2)nc(N2CCN(Cc3ccc(S(=O)(=O)F)cc3)CC2)n1 | 5.35 | < 4.52 | 5.35 | < 4.52 | < 4.52 | 4.94 | 5.46 | 5.27 | < 4.52 | 5.73 |  |  |  |  |  |  |  |  |  |  |  |  |  |  |  |  |  |  |
